Results taken from patent US20060100173A1, “Ophthalmic solution” (priority 2004, published 2006).
Where a name gives a salt, the structure may show the parent alone.

System: five organisms
Test: Antimicrobial activity, sum of log drops of five organisms
Assay type: cell-based
Settings: HA 1.7M relative to non-HA control and/or lower molecular weight HA compositions; Tris buffered

Molecule | reduction of the sum of the kill level by HA of MW 1.7M
poly[hexamethylene biguanide hydrochloride] [PHMB] | about 4 log
CCCCC(CC)CNC(=N)NC(=N)NCCCCCCNC(=N)NC(=N)NCC(CC)CCCC (centres unmarked) [ALX, Alexidine Dihydrochloride] | about 2 log
